For one molecule, IC50 results are on record in patent US20110098305A1, “ARYLSULFONAMIDE COMPOUNDS, COMPOSITIONS AND METHODS OF USE” (priority 2008, published 2011).

The target in the experiment is T1, Bcl-XL (Homo sapiens, UniProt Q07817).
T1 construct: GST tagged Bcl-XL ΔC25 protein (0.6 nM Final concentration)
The experiment is described as follows: Alphascreen competition assay, GST tagged Bcl-XL with biotinylated Bim BH3-26 peptide. The experiment is classed as binding. The note with it: GST tagged Bcl-XL ΔC25 protein 0.6 nM, biotinylated Bim BH3-26 peptide 5.0 nM, read-out: IC50 against Bcl-XL. From the text:
The following example describes the measurement of competition of compounds of the invention with Bim26-mer for a Bcl-2 homologue binding site.
Alphascreen (Amplified Luminescent Proximity Homogenous Assay) is a bead based technology which measures the interaction between molecules. The assay consists of two hydrogel coated beads which, when brought into close proximity by a binding interaction, results in the transfer of singlet oxygen from a donor bead to an acceptor bead.
Upon binding and excitation with laser light at 680 nm, a photosensitizer in the donor bead converts ambient oxygen to a more excited singlet state. This singlet oxygen then diffuses and reacts with a chemiluminescer in the acceptor bead. Fluorophores within the same bead are activated and result in the emission of light at 580-620 nm.
Screening of the compounds of the invention is performed using the Alphascreen GST (glutathione s-transferase) detection kit system. […] To this reaction mix, anti-GST coated acceptor beads and Streptavidin coated donor beads, both at 15 μg/ml Final concentration, are added and the assay mixture is incubated for 4 hours at room temperature before reading. […]
Assay buffer contains 50 mM Hepes pH 7.4, 10 mM DTT, 100 mM NaCl, 0.05% Tween and 0.1 mg/ml casein. […] Assays are performed in 384 well white Optiplates and is analyzed on the PerkinElmer Fusion alpha plate reader (Ex680, Em520-620 […]). […]
(In general: In Alpha technology, singlet oxygen from a donor bead excites a nearby acceptor bead.)

T1 sequence (Q07817 1-208 limits assumed, species assumed): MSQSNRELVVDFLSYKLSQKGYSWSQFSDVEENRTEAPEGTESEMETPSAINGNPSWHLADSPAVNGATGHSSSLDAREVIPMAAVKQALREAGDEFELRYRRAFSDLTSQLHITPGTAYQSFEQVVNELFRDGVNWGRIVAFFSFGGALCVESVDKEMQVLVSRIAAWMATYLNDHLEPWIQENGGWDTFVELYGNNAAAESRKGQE

A word on the IC50: it is the point on the concentration scale where inhibition reaches its midpoint. As to `O=[N+]([O-])c1cc(S(=O)(=O)Nc2ncnc3cc(-c4ccc(F)cc4)ccc23)ccc1NCCSc1ccccc1` [compound c, N-(7-(4-fluorophenyl)quinazolin-4-yl)-3-nitro-4-(2-(phenylthio)ethylamino)benzenesulfonamide], the IC50 turned out to be 3 µM.
